Laboratory results from patent publication US20070196288A1, “Method of treating periodontitis and of reducing dentinal sensitivity” (Research Foundation of the State University of New York, priority 2006, published 2007).

Assays:
[1] = Dissolution of gadolinium materials; type: physicochemical
[2] = test system: cell surface-extracted proteases from P. Gingivalis; assay: BAPNA hydrolysis by cell surface-extracted proteins; type: biochemical, P. Gingivalis 381; conditions: for inhibitory effect on cell surface-extracts (BAPNA hydrolysis): FIG. 2, inhibitor 0.4-2.4 mM tested, 2.4 mM stated for gadolinium nitrate, 5% 2-mercaptoethanol, 37° C., 1 hour; for OD at A405 (p-nitroaniline released): inhibitor concentration 2.4 mM
Description: (§1) All steps in the isolation of P. Gingivalis proteins were carried out at 4° C. […] The cells and culture media were separated by centrifugation at 10,000×g for 10 minutes in a Sorvall centrifuge.
P. Gingivalis cells collected after centrifugation were washed three times with 50 millimolar (“mM”) HEPES buffer, pH 7.0. The washed cells were stirred with 1% Triton X-100 (Fisher Scientific) dissolved in HEPES (Fisher Scientific) at 4° C. for 15 minutes to solubilize cell surface proteins. The cells were centrifuged at 10,000×g in a Sorvall centrifuge for 10 minutes, and the supernatant was collected. [Sojar, H. T., Lee, J. Y., Bedi, G. S. et al., “Purification and Characterization of a Protease from Porphyromonas Gingivalis Capable of Degrading Salt-Solubilized Collagen”, 61 Infect. Immun. […] The amount of protein was estimated using a Spectrophotometer ND-1000 by absorbance at 280 nm.
(§2) Activity of cell surface-extracted and culture-precipitated proteases was assayed by using the synthetic chromogenic substrate benzoyl-L-Arg-p-nitroanilide (BAPNA). [Erlanger, B. F., Kokowsky, N. & Cohen, W., “The Preparation and Properties of Two New Chromogenic Substrates of Trypsin”, 95 Arch. […] Colorimetric values measured as absorbance were obtained using Spectronic 2000 Methodology for culture media-precipitated proteins.
The reaction mixture consisted of 100 μl of 100 mM substrate in 50 mM HEPES buffer, pH 7, 50 μl of an approximately 1 mg/ml of proteins was used to test chromogenic activity of the substrate. With 5% of 2-mercaptoethanol as reducing agent, the volume was made to 500 μl. Various volumes of the inhibitor 0.4 mM; 0.8 mM; 1.2 mM; 1.6 mM; 2.0 mM; 2.4 mM were used.
(§3) After incubation at 37° C. for 1 hour, 100 μl of 5 N acetic acid was added to stop the reaction in both experimental samples. The total volume was made to 1 ml by addition of water. The p-nitroaniline released was determined by measuring A405.

[3] = pH of the applied solution; type: physicochemical; conditions: pH of the solution or product as applied to dentine
[4] = test system: P. Gingivalis proteins extracted from cell surface and precipitated from cell culture media (gelatin-cleaving / collagenolytic activity); assay: Gelatin zymography; type: biochemical, P. Gingivalis 381; conditions: inhibitor 5 mM in development buffer, 37° C. overnight; both protein preparations (FIGS. 3 and 4)
Text: Since P. Gingivalis proteases cleave gelatin effectively, the gelatin-cleaving activity of the extracted proteins was checked by zymography, as described by Heussen and Dowdle using 10% Zymogen (Gelatin) Gel 1.0 mm×10 well (Invitrogen Corporation). [Heussen, C. & Dowdle, E. B., “Electrophoretic Analysis of Plasminogen Activators in Polyacrylamide Gels Containing Sodium Dodecyl Sulfate and Copolymerized Substrates”, 102 Anal. Biochem. 196-202 (1980).]
The extracted proteins, with the reducing sample buffer containing 5% mercaptoethanol, was electrophoresed. After electrophoresis, the gel was washed in 50 mM HEPES, pH 7.0, containing 2% Triton X-100 for 30 minutes, and rinsed twice with the same buffer without Triton X-100. The gel was then cut into 3 parts before transferring to a development buffer containing 50 mM HEPES, 5% 2-mercaptoethanol, buffered at pH 7.0. One part was incubated with developing buffer whereas the other two parts were incubated in the presence of inhibitor with varying concentrations of 5 mM and 10 mM. The gel was incubated at 37° C. overnight on a rocker. The incubated gel was then fixed with 50% methanol and 12% acetic acid for 30 minutes, and stained with 0.1% Coomassie blue in 50% methanol and 12% acetic acid to visualize lytic bands.

[5] = test system: cell culture media-precipitated proteases from P. Gingivalis; assay: BAPNA hydrolysis by culture media-precipitated proteins; type: biochemical, P. Gingivalis 381; conditions: FIG. 1; inhibitor 2-10 mM tested, 10 mM stated for gadolinium nitrate; 5% 2-mercaptoethanol, 37° C., 1 hour
Description: as §1
To the cell-separated culture supernatant, ammonium sulfate was added to achieve 80% saturation in a volume of 400 ml. After 4 hours, the precipitate was collected by centrifugation at 11,000×g for 45 minutes. It was then dissolved in HEPES and dialyzed against 4 liters of HEPES buffer. The precipitate formed on dialysis was removed by centrifugation at 10,000×g for 30 minutes, the supernatant was collected, and the precipitated material was discarded. Extracted proteins was analyzed for protein content using a Spectrophotometer ND-1000.
as §2
The reaction mixture consisted of 50 μl of 100 mM substrate in 50 mM HEPES buffer, pH 7, and 25 μl of the sample protease containing 2 mg/ml of protein was used to test chromogenic activity of the substrate. With 5% of 2-mercaptoethanol as reducing agent, volume was made to 250 μl. Various concentrations of the inhibitor 2 mM; 4 mM; 6 mM; 8 mM; 10 mM were used.
as §3

| Compound | conditions required for dissolution [1] | inhibitory effect on cell surface-extracts (BAPNA hydrolysis) [2] | OD at A405 (p-nitroaniline released) [2] | pH [3] | pH ([3]; listed as Gadolinium nitrate) | effect on gelatin-cleaving / collagenolytic activity on zymogram [4] | inhibition of protease activity (BAPNA hydrolysis), cell culture-precipitated proteins [5] |
| --- | --- | --- | --- | --- | --- | --- | --- |
| O=C([O-])C(=O)[O-].O=C([O-])C(=O)[O-].O=C([O-])C(=O)[O-].[Gd+3].[Gd+3] [Gadolinium oxalate] | required very acidic conditions for dissolution | – | – | – | – | – | – |
| O.O.O.O.O.O.O=[N+]([O-])[O-].O=[N+]([O-])[O-].O=[N+]([O-])[O-].[Gd+3] [gadolinium nitrate, gadolinium nitrate hexahydrate, (Gd(NO3)3.6H2O)] | – | ~56% | ~0.43 | 4.3 | about 4.3 | inhibited the collagenolytic activity | – |
| O.O.O.O.O.O.[Cl][Sm]([Cl])[Cl] [samarium chloride, samarium chloride hexahydrate, (SmCl3.6H2O)] | – | ~59% | ~0.39 | – | – | – | ~75% |
| O.O.O.O.O.O.[Cl-].[Cl-].[Cl-].[Gd+3] [gadolinium chloride, gadolinium chloride hexahydrate (GdCl3.6H2O)] | – | ~54% | ~0.45 | – | – | – | ~70% |
| O.O.O.O.O.O.O.[Ce+3].[Cl-].[Cl-].[Cl-] [cerium chloride, cerium chloride heptahydrate (CeCl3.7H2O)] | – | ~32% | ~0.66 | – | – | – | ~11% |
| [Gd] [gadolinium] | – | – | – | – | – | negative staining bands were absent | – |
